System: normal ernährte Kaninchen
Assay: Blood sugar lowering in normally fed rabbits after oral administration (autoanalyzer)
Format: in vivo
Method: Die blutzuckersenkende Wirkung der beschriebenen Benzolsulfonylsemicarbazide kann dadurch festgestellt werden, daß man sie als freie Verbindung oder in Form der Natriumsalze an normal ernährte Kaninchen verfüttert und den Blutzuckerwert nach der bekannten Methode von Hagedorn-Jensen oder mit einem Autoanalyzer über eine längere Zeitdauer ermittelt.
Die routinemäßige Bestimmung der blutzuckersenkenden Wirkung kann mit Dosierungen von z.B. 10,2 oder 0,4 mg Wirksubstanz pro kg Versuchstier nach bekannten Methoden erfolgen.
4-(4-<2-(1-Oxo-isoindolin-2-carboxamido)-äthyl> -benzolsulfonyl)-1,1-hexamethylen-semicarbazid wurde in einer Dosierung von 0,4 mg/kg Kaninchen verabreicht und die Blutzuckerwerte wurden mit einem Autoanalyzer über eine längere Zeitdauer ermittelt. Die hierbei gemessene Blutzuckersenkung ist in der nachfolgenden Tabelle in % nach.... Stunden angegeben. In der Tabelle ist ferner die Blutzuckersenkung in % angegeben, die nach p.o. Verabreichung von 0,08 mg/kg Kaninchen beobachtet wurde.

## O=C(NN1CCCCCC1)NS(=O)(=O)c1ccc(CCNC(=O)N2Cc3ccccc3C2=O)cc1 [4-(4-<2-(1-Oxo-isoindolin-2-carboxamido)-äthyl> -benzolsulfonyl)-1,1-hexamethylen-semicarbazid]
0,4 mg/kg p.o., after 1 hour
  Blutzuckersenkung an Kaninchen in %: 26%
0,4 mg/kg p.o., after 3 hours
  Blutzuckersenkung an Kaninchen in %: 31%
0,4 mg/kg p.o., after 5 hours
  Blutzuckersenkung an Kaninchen in %: 43%
0,4 mg/kg p.o., after 24 hours
  Blutzuckersenkung an Kaninchen in %: 37%
0,4 mg/kg p.o., after 48 hours
  Blutzuckersenkung an Kaninchen in %: 0%
0,08 mg/kg p.o., after 1 hour
  Blutzuckersenkung an Kaninchen in %: 11%
0,08 mg/kg p.o., after 3 hours
  Blutzuckersenkung an Kaninchen in %: 22%
0,08 mg/kg p.o., after 5 hours
  Blutzuckersenkung an Kaninchen in %: 33%
